Measured values reported in patent EP4050002A1, “ANTI-PROLIFERATIVE AGENTS” (First Health Pharmaceuticals B.V., priority 2021, dated 2022).
Like-named read-outs stand apart in the source and are kept apart here.

Tests used:
Plasma stability = type: in vitro ADME, Sprague Dawley rats; conditions: Rat plasma
Description: Plasma previously separated from whole blood in EDTA-treated tubes and frozen; blood samples obtained from healthy volunteers, Sprague Dawley rats and CD1 mice, was thawed at room temperature and centrifuged at 1400x RCF 4°C, for 15 minutes. Approximately 90% of the clear supernatant fraction was transferred to a separate tube and was used for the assay.
Stocks (1 mM and 25 µM) of test compound were prepared in acetonitrile:water (50:50 v/v). Plasma samples were heat inactivated at 54°C. 3 µl of 25 µM test compound were added to 72 µl of heat inactivated plasma. A 50 µL aliquot of the mixture was taken and crashed with 200 µl of acetonitrile containing Telmisartan 100 ng/ml as internal standard and was further processed along with other time points: 10, 30 60 and 120 minutes.
Final working stock of 1 µM was prepared by diluting 12 µl of 25 µM stock in 288 µl of plasma. The obtained solution (300 µl) of plasma containing the test compound was incubated for […] at 37°C in shaker water bath with gentle shaking. 50 µl aliquot of sample at 10, 30, 60 and 120 min was precipitated immediately with 200 µl of acetonitrile containing internal standard and centrifuged at 4000x RCF, 4°C for 20 minutes. 150 µl of supernatant was diluted with 150 µl of water and analyzed by LC-MS/MS.
The % remaining of the test substance was calculated as: (Peak Area ratio at time (min))/(Peak Area Ratio at 0 min) ^∗ 100
The API400 MS and Agilent 1260 Infinity LC were used. Mobile Phase included 10mM Ammonium acetate with 0.1% formic acid in MilliQ water, and Methanol. The column was Phenomenex, KINETIC EVO C18 100A 5u 50^∗4.6 mm, 10 µl injection volume.

[1] = Tissue distribution in xenograft mice (conditions #1, #1A, #1B); type: in vivo, male FOXN1nu/nu nude mice; conditions: for Kp at 4 h: mouse, brain, ip, read-out: Brain to plasma
Description: The pharmacokinetic study was performed in male Swiss albino mice from Hylasco Biotechnology Pvt. Ltd. (A Charles River technology Licensee). The tissue distribution study was performed in male Swiss albino mice and in male FOXN1^nu/nu nude mice (Envigo spa). The efficacy study was performed in male FOXN1^nu/nu nude mice.
At study closure, animals were sacrificed and tumor and tissues removed for further studies of distribution and morphology. Mice from the efficacy study were anesthetized using gaseous anesthesia and blood samples collected in Li-Heparin containing tubes by intracardiac puncture, stored on ice, centrifuged within 15 minutes to separate plasma at 1540 ref (5000 rpm), at 4°C for 10 minutes; plasma was separated and transferred to new tubes. After blood collection, tissues for bio-analyses were separated, washed in PBS, dried and frozen at -80±10°C until homogenization.
The levels of compound in the tissues were quantified by LC-MS/MS as follows.
UHPLC-MS/MS analysis was performed on a Q-Exactive Plus (ThermoFisher Scientific) mass spectrometer coupled with an UHPLC Ultimate 3000SD (ThermoFisher Scientific).
Chromatographic separation of the analytes was performed on an Acquity UPLC BEH Shield RP18 column ([…], 2.1 mm x 50 mm, […]) with a column temperature at 40°C.
The flow rate was 250 µl/min. The mobile phase was a gradient of a mixture of 10 mM ammonium acetate with 0.1% formic acid (phase A) and Acetonitrile:Methanol (50:50 v/v) as phase B. The gradient profile used began with an elution of (A:B) 70:30 v/v for 1 min, followed by a gradual decrease of A to (A:B) 5:95 v/v until 5 min, a constant gradient for 1 min of 95% of B, then a gradual decrease of B to the initial condition until 7 min and then a final conditioning of the column for about 4 min in order to equilibrate for the next injection.
The electrospray ionization source (ESI) was operated in positive mode. Parallel reaction monitoring (PRM) methods was applied to quantify compound 5. The selected transitions m/z 414.20-243.10 for compound 5 and m/z 360.18- 243.12 for the internal standard (compound 4) were considered. Each sample was assayed in duplicate.
Preparation of plasma samples: Mouse plasma (10 µl) was placed into a tube containing 188 µl of a chilled Acetonitrile:Methanol solution (50:50 v/v) in order to precipitate proteins. Each sample was spiked with a fixed concentration (200 nM) of compound 4 used as internal standard. After 1 min of vortex, the mixture was centrifuged at 10,000 x g for 15 minutes at 4 °C to separate the protein material from the supernatant. The last one of each sample was transferred to a new sample tube and the solvent was evaporated under nitrogen stream. The dried material was re-suspended in 100 µl of mobile phase. The resulting solution was then analyzed by UHPLC-MS/MS without further modifications.
Preparation of tissue samples was as follows: the tissues of interest were washed briefly with chilled water to remove traces of blood, if necessary, and cut into small pieces, keeping them on ice during all the operations. Then the samples were transferred to a tube and homogenized in purified water using the homogenizer TissueRuptor of Qiagen. In general, 300 µl of purified water was added to 50 mg of tissue. The homogenized samples were centrifuged at 10,000 x g for 15 minutes at 4°C to pellet cell debris, and then the supernatant were transferred to a clean tube in order to perform protein precipitation using a chilled solution of Acetonitrile:Methanol (50:50 v/v) and vortexed for 1 min. Before protein precipitation a fixed concentration (200 nM) of internal standard (Compound 4) was added in every sample. After centrifugation, the supernatant was separated from protein pellet and dried under nitrogen stream. 50 µl of mobile phase was used to re-suspend each dried sample. […]

[2] = #1: single I.P. administration, 45 mg/Kg, withdrawal 4 hours after administration
[3] = #1A: two I.P. administration, 45 mg/Kg, at distance of 48 hours, withdrawal 4 hours after last administration
[4] = #1B: 6 weeks of repeated I.P. administration, 45 mg/kg, every 48 hours, withdrawal 4 hours after last administration

CCCCc1cn(-c2ccc(-c3nnc(-c4ccccc4C(F)(F)F)o3)cc2)nn1 [Compound 5]
% Remaining ± SD (Plasma stability; 0 minutes): 100.0 ± 1.0% | % Remaining ± SD (Plasma stability; 10 minutes): 107.1 ± 4.1% | % Remaining ± SD (Plasma stability; 30 minutes): 103.3 ± 2.3% | % Remaining ± SD (Plasma stability; 60 minutes): 99.0 ± 6.8% | % Remaining ± SD (Plasma stability; 120 minutes): 104.8 ± 5.6% | Adipose to plasma [1, 2]: 14.3 | Breast to plasma [1, 2]: 42.9 | Intestine to plasma [1, 2]: 5.8 | Kidney to plasma [1, 2]: 23.1 | Liver to plasma [1, 2]: 7.3 | Lung to plasma [1, 2]: 12.6 | Lymph node to plasma [1, 2]: 17.9 | Plasma [1, 2]: 2099.8 ng/mL | Spleen to plasma [1, 2]: 26.1 | Tumor to plasma [1, 2]: 11.3 | Adipose to plasma [1, 3]: 31.8 | Breast to plasma [1, 3]: 10.9 | Intestine to plasma [1, 3]: 4.2 | Kidney to plasma [1, 3]: 21.6 | Liver to plasma [1, 3]: 12.9 | Lung to plasma [1, 3]: 10.3 | Lymph node to plasma [1, 3]: 137.7 | Plasma [1, 3]: 2188.6 ng/mL | Spleen to plasma [1, 3]: 23.3 | Tumor to plasma [1, 3]: 39.9 | Adipose to plasma [1, 4]: 233.3 | Breast to plasma [1, 4]: 18.5 | Intestine to plasma [1, 4]: 10.9 | Kidney to plasma [1, 4]: 18.3 | Liver to plasma [1, 4]: 12.4 | Lung to plasma [1, 4]: 9.6 | Lymph node to plasma [1, 4]: 27.5 | Plasma [1, 4]: 4658.9 ng/mL | Spleen to plasma [1, 4]: 21.4 | Tumor to plasma [1, 4]: 14.9 | Kp at 4 h ([1]; 45 mg/kg, #1: single I.P. administration, 45 mg/Kg, withdrawal 4 hours after administration): 0.5 | Kp at 4 h ([1]; 45 mg/kg, #1A: two I.P. administration, 45 mg/Kg, at distance of 48 hours, withdrawal 4 hours after last administration): 1.1 | Kp at 4 h ([1]; 45 mg/kg, #1B: 6 weeks of repeated I.P. administration, 45 mg/kg, every 48 hours, withdrawal 4 hours after last administration): 0.7
